# From patent US7087628B2, “N-heterocyclyl hydrazides as neurotrophic agents” (Ortho-McNeil Pharmaceutical, Inc., priority 2001, dated 2006)
# Test system: Primary Rat Hippocampal Cells
# Assay: Neurite outgrowth assay in primary rat hippocampal cells (MAP-2 immunofluorescence)
# Assay type: cell-based
# Conditions: neurite outgrowth response reported as percent of DMSO-treated control; MAP-2 fluorescence; cells 7 days in culture
# Method: Hippocampal cells were dissected from the brains of embryonic day 18 rat pups and dissociated with trypsin (1 mg/mL) and trituration. Cells were seeded at 30,000 cells/well in 96-well plates filled with 100 μL MEM and 10% FBS. At 7 days in culture, cells were fixed with 4% paraformaldehyde and immuno-fluorescence was performed.
# Cultures were incubated with normal horse serum (1:50; Vector Labs) for about 20 min, rinsed and then incubated with primary antibody, microtubule associated-protein 2 (anti-mouse MAP-2; 1:1000; Chemicon) for about 2 h at about RT. Following primary antibody, cultures were rinsed and incubated with fluorescein anti-mouse IgG (rat absorbed; 1:50; Vector Labs) for about 1 h. After fluorescein incubation, the cultures were rinsed and read in PBS on a fluorescent plate reader (excitation: 485 nm; emission: 530 nm). A compound was regarded as active if the neurite outgrowth response was greater than the mean DMSO-treated control response on the same plate. The response to test compound was reported as percent of DMSO-treated control. The signal-to-noise separation was consistent: the fluorescence from DMSO control wells is at least two-fold greater than blank wells.
row,Structure (SMILES),Rat Hippocampal Cell Response
1,CCC(C)(C)C(=O)C(=O)N1CCCC1C(=O)NNc1ccc2ccccc2n1 (stereo not shown) [(2)],107
2,CCC(C)(C)C(=O)C(=O)N1CCCC1C(=O)NNc1ccncc1Br (stereo not shown) [(3)],106
3,CCC(C)(C)C(=O)C(=O)N1CCCC1C(=O)NNc1cc(C)c2c(C)nn(C)c2n1 (stereo not shown) [(4)],105
4,CCC(C)(C)C(=O)C(=O)N1CCCC1C(=O)NNc1c([N+](=O)[O-])c(C)nn1C (stereo not shown) [(5)],<100
5,CCC(C)(C)C(=O)C(=O)N1CCCC1C(=O)NNc1cc(C(F)(F)F)cc(C)n1 (stereo not shown) [(6)],<100
6,CCC(C)(C)C(=O)C(=O)N1CCCC1C(=O)NN(C)c1cc(C(F)(F)F)cc(C)n1 (stereo not shown) [(7)],<100
7,CCC(C)(C)C(=O)C(=O)N1CCCC1C(=O)NNc1ncc(C(F)(F)F)cc1Cl (stereo not shown) [(8)],106
8,"CCC(C)(C)C(=O)C(=O)N1CCCC1C(=O)NNc1ccccn1 (stereo not shown) [Compound (1), 1-(3,3-Dimethyl-2-oxo-pentanoyl)-pyrrolidine-2-carboxylic acid N′-pyridine-2-yl-hydrazide]",157
9,"Cc1cc(C(F)(F)F)cc(NNC(=O)C2CCCCN2C(=O)C(=O)c2cccs2)n1 (stereo not shown) [Compound (9), 1-(2-Oxo-2-thiophen-2-yl-acetyl)piperidine-2-carboxylic acid N′-(6-methyl-4-trifluoromethyl-pyridin-2-yl)-hydrazide]",118
10,"O=C(NNc1ccccn1)[C@@H]1CCN1S(=O)(=O)Cc1ccccc1 [Compound (10), 2-Azetidinecarboxylic acid, 1-[(phenylmethyl)sulfonyl]-, 2-(2-pyridinyl)hydrazide, (2S)-]",115
